Read-outs that look alike come from different tables or passages of the source.
Legend:
[1] = system: MCF-7; test: MTT assay on cancer cell line MCF-7; assay type: cell-based, Human; conditions: Homo sapiens
Protocol: (§1) Cell culture, growth conditions and treatments. […] Different molecules were dissolved in DMSO and were delivered to cell cultures in complete medium.

[2] = system: PC-3; test: MTT assay on cancer cell line PC-3; assay type: cell-based, human; conditions: Homo sapiens, Table 9 (for reference), read-out: In vitro cell inhibition, % of inhibition, PC-3
Protocol: as §1

[3] = system: MDA-MB435; test: MTT assay on cancer cell line MDA-MB435; assay type: cell-based, Human; conditions: Homo sapiens, MDA-MB-435; MDA-MB435; at 10µM; Table 9 (for reference); read-out: In vitro cell inhibition, % of inhibition, MDA-MB435
Protocol: as §1

[4] = system: HCT-116; test: MTT assay on cancer cell line HCT-116; assay type: cell-based, human; conditions: Homo sapiens, at 10µM, Table 9 (for reference), read-out: In vitro cell inhibition, % of inhibition, HCT-116
Protocol: as §1

[5] = system: SHSY-5Y; test: MTT assay on cancer cell line SHSY-5Y; assay type: cell-based, human; conditions: Homo sapiens, SH-SY5Y
Protocol: as §1

[6] = biological target: CDK-2/cyclin A (Homo sapiens, UniProt P24941); test: CDK inhibition assay, CDK-2/cyclin A against Histone HI, 33P-ATP; assay type: biochemical; conditions: at 500 nM
Protocol: Compounds were evaluated for their ability to inhibit CDK2 and CDK9 as given below.
CDK-2/cyclin A (5-20 mU diluted in 50 mM Hepes pH 7.5, 1 mM DTT, 0.02% Brij35, 100 mM NaCl) was assayed against Histone HI in a final volume of 25.5 µl containing 50 mM Hepes pH7.5, 1 mM DTT, 0.02% Brij35, 100 mM NaCl, Histone HI (1 mg/ml), 10 mM magnesium acetate and 0.02 mM [33P-g-ATP](500-1000 cpm/pmole) and incubated for 30 min at room temperature. Assays were stopped by addition of 5 µl of 0.5 M (3%) orthophosphoric acid and then harvested onto P81 Unifilter plates with a wash buffer of 50 mM orthophosphoric acid.

[7] = biological target: CDK-9/Cyclin T1 (Homo sapiens, UniProt P50750); test: CDK inhibition assay, CDK-9/Cyclin T1 against substrate peptide, 33P-ATP; assay type: biochemical; conditions: at 500 nM
Chain of CDK-9/Cyclin T1 (P50750 whole entry): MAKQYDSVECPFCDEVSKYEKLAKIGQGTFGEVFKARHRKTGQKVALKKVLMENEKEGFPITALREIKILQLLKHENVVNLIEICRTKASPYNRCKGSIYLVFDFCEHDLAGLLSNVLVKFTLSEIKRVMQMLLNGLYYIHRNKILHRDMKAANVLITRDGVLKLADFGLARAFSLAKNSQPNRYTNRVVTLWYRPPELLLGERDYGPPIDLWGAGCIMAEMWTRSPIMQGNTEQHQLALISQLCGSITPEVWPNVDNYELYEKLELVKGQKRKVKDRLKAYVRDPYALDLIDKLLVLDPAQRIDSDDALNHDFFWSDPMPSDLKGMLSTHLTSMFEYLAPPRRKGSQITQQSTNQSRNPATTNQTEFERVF
Chain of CDK-9/Cyclin T1 (O60563 whole entry partner): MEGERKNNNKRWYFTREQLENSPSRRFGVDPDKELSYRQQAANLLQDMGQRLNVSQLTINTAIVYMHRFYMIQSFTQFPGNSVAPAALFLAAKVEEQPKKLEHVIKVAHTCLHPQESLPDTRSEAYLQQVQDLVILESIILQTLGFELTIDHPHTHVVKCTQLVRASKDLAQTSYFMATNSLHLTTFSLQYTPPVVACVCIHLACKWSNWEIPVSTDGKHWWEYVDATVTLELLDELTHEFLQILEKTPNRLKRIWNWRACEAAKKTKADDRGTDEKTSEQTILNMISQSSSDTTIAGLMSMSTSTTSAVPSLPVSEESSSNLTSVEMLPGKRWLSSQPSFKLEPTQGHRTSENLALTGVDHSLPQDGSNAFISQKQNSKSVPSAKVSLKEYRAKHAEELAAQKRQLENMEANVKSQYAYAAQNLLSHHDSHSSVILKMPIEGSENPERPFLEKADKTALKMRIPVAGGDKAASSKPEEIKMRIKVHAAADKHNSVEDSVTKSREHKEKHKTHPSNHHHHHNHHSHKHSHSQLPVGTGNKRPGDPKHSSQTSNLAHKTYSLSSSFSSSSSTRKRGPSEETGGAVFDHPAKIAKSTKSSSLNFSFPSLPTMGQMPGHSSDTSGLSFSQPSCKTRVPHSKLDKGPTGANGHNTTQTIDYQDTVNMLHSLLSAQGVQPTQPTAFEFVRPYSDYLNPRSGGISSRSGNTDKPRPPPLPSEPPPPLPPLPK
Protocol: (50-1000 cpm/pmole) and incubated for 30 min at room temperature. Assays were stopped by addition of 5 µl of 0.5 M (3%) orthophosphoric acid and then harvested onto P81 Unifilter plates with a wash buffer of 50 mM orthophosphoric acid.

[8] = MCF7, MCF-7, Table 9 (for reference), read-out: In vitro cell inhibition, % of inhibition, MCF-7
[9] = MCF7, read-out: inhibition against MCF-7 cell lines
[10] = SHSY-5Y, Table 9 (for reference), read-out: In vitro cell inhibition, % of inhibition, SHSY-5Y
[11] = read-out: inhibition against SHSY-5Y cell lines
[12] = Table-6, read-out: In vitro CDK2 % of inhibition
[13] = read-out: inhibition against CDK2
[14] = Table-6, read-out: In vitro CDK9 % of inhibition
[15] = read-out: inhibition against CDK9
[16] = Table-7, read-out: In vitro CDK2 % of inhibition
[17] = Table-7, read-out: In vitro CDK9 % of inhibition

Row | inhibition at 0.5 µM [6, 12] [%] | inhibition at 0.5 µM [6, 13] [%] | inhibition at 0.5 µM [7, 14] [%] | inhibition at 0.5 µM [7, 15] [%] | inhibition at 0.5 µM [6, 16] [%] | inhibition at 0.5 µM [7, 17] [%] | SMILES | inhibition at 10 µM [1, 8] [%] | inhibition at 10 µM [1, 9] [%] | inhibition at 10 µM [2] [%] | inhibition at 10 µM [3] [%] | inhibition at 10 µM [4] [%] | inhibition at 10 µM [5, 10] [%] | inhibition at 10 µM [5, 11] [%]
1 |  |  |  |  |  |  | Nc1nccc(-c2c[nH]c3ncc(-c4ccoc4)cc23)n1 [1C16, 4-(5-(furan-3-yl)-1H-pyrrolo[2,3-b]pyridin-3-yl)pyrimidin-2-amine] | > 70 | > 70 | < 50 | > 70 | > 70 | > 70 | > 70
2 |  |  |  |  |  |  | Nc1nccc(-c2c[nH]c3ncc(-c4cccnc4)cc23)n1 [1C15, 4-(5-(pyridin-3-yl)-1H-pyrrolo[2,3-b]pyridin-3-yl)pyrimidin-2-amine] | > 70 | > 70 | < 50 | > 70 | > 50 | > 70 | > 70
3 |  |  |  |  |  |  | COc1ccc2[nH]c(-c3cnc4[nH]cc(-c5ccnc(N)n5)c4c3)cc2c1 [1C17, 4-(5-(5-methoxy-1H-indol-2-yl)-1H-pyrrolo[2,3-b]pyridin-3-yl)pyrimidin-2-amine] | > 70 | > 70 | > 50 | > 70 | > 70 | < 50 | 
4 |  |  |  |  |  |  | Nc1nccc(-c2c[nH]c3ncc(-c4cc5ccccc5[nH]4)cc23)n1 [1C19, 4-(5-(1H-indol-2-yl)-1H-pyrrolo[2,3-b]pyridin-3-yl)pyrimidin-2-amine] | > 50 | > 70 | < 50 | > 50 | > 50 | > 70 | > 70
5 |  |  |  |  |  |  | Nc1nccc(-c2c[nH]c3ncc(-c4cccc(F)c4)cc23)n1 [1C5, 4-(5-(3-fluorophenyl)-1H-pyrrolo[2,3-b]pyridin-3-yl)pyrimidin-2-amine] | > 70 | > 70 | < 50 | > 70 | > 70 | > 70 | > 70
6 |  |  |  |  |  |  | Nc1nccc(-c2c[nH]c3ncc(-c4nccc5ccccc45)cc23)n1 [1C20, 4-(5-(isoquinolin-1-yl)-1H-pyrrolo[2,3-b]pyridin-3-yl)pyrimidin-2-amine] | > 50 | > 50 | > 50 | > 50 | > 70 | > 50 | 
7 |  |  |  |  |  |  | CSc1ccc(-c2cnc3[nH]cc(-c4ccnc(N)n4)c3c2)cc1 [1C8, 4-(5-(4-(methylthio)phenyl)-1H-pyrrolo[2,3-b]pyridin-3-yl)pyrimidin-2-amine] | > 50 | > 50 | < 50 | > 70 | > 70 | > 50 | 
8 |  |  |  |  |  |  | Nc1nccc(-c2c[nH]c3ncc(-c4ccc(C=O)cc4)cc23)n1 [1C13, 4-(3-(2-aminopyrimidin-4-yl)-1H-pyrrolo[2,3-b]pyridin-5-yl)benzaldehyde] | > 50 | > 50 | > 50 | > 50 | > 50 | > 50 | 
9 |  |  |  |  |  |  | Nc1nccc(-c2c[nH]c3ncc(-c4cc5ccccc5s4)cc23)n1 [1C18, 4-(5-(benzo[b]thiophen-2-yl)-1H-pyrrolo[2,3-b]pyridin-3-yl)pyrimidin-2-amine] | > 70 |  | > 70 | < 50 | > 70 | > 70 | > 70
10 |  |  |  |  |  |  | COc1ccc(-c2cnc3[nH]cc(-c4ccnc(N)n4)c3c2)cc1 [1C11, 4-(5-(4-methoxyphenyl)-1H-pyrrolo[2,3-b]pyridin-3-yl)pyrimidin-2-amine] | > 50 | > 50 | < 50 | > 70 | > 70 | > 70 | > 70
11 |  |  |  |  |  |  | Nc1nccc(-c2c[nH]c3ncc(-c4ccc(C(F)(F)F)cc4)cc23)n1 [1C1, 4-(5-(4-(trifluoromethyl)phenyl)-1H-pyrrolo[2,3-b]pyridin-3-yl)pyrimidin-2-amine] | > 50 | > 50 | > 50 | < 50 | > 50 | > 50 | 
12 |  |  |  |  |  |  | Cc1ccc(-c2cnc3[nH]cc(-c4ccnc(N)n4)c3c2)cc1 [1C6, 4-(5-(p-tolyl)-1H-pyrrolo[2,3-b]pyridin-3-yl)pyrimidin-2-amine] | > 70 | > 70 | > 50 | > 70 | > 70 | > 70 | > 70
13 | > 50 | > 50 | < 50 | > 50 |  |  | c1ccc2c(-c3cnc4[nH]cc(-c5ccnc(NC6CC6)n5)c4c3)nccc2c1 [1A20, N-cyclopropyl-4-(5-(isoquinolin-1-yl)-1H-pyrrolo[2,3-b]pyridin-3-yl)pyrimidin-2-amine] |  |  |  |  |  |  | 
14 |  | > 70 |  | > 70 | > 70 | > 70 | O=Cc1ccc(-c2cnc3[nH]cc(-c4ccnc(NC5CCCCCC5)n4)c3c2)cc1 [1A53, 4-(3-(2-(cycloheptylamino)pyrimidin-4-yl)-1H-pyrrolo[2,3-b]pyridin-5-yl)benzaldehyde] |  |  |  |  |  |  | 
15 |  |  |  |  |  |  | Nc1nccc(-c2c[nH]c3ncc(-c4ccc(OC(F)(F)F)cc4)cc23)n1 [1C3, 4-(5-(4-(trifluoromethoxy)phenyl)-1H-pyrrolo[2,3-b]pyridin-3-yl)pyrimidin-2-amine] | > 70 | > 70 | > 50 | > 70 | > 70 | > 70 | > 70
16 | > 50 | > 50 | > 50 | > 50 |  |  | Cc1cccc(-c2cnc3[nH]cc(-c4ccnc(NC5CCCC5)n4)c3c2)c1 [1A27, N-cyclopentyl-4-(5-(m-tolyl)-1H-pyrrolo[2,3-b]pyridin-3-yl)pyrimidin-2-amine] |  |  |  |  |  |  | 
17 |  | > 50 |  | > 50 | > 50 | > 50 | c1ccc(CCNc2nccc(-c3c[nH]c4ncc(-c5cc6ccccc6[nH]5)cc34)n2)cc1 [1B19, 4-(5-(1H-indol-2-yl)-1H-pyrrolo[2,3-b]pyridin-3-yl)-N-phenethylpyrimidin-2-amine] |  |  |  |  |  |  | 
18 |  | > 50 |  | > 50 | > 50 | > 50 | CSc1ccc(-c2cnc3[nH]cc(-c4ccnc(NCCc5ccccc5)n4)c3c2)cc1 [1B8, 4-(5-(4-(methylthio)phenyl)-1H-pyrrolo[2,3-b]pyridin-3-yl)-N-phenethylpyrimidin-2-amine] |  |  |  |  |  |  | 
19 |  |  |  |  |  |  | Nc1nccc(-c2c[nH]c3ncc(-c4ccc(Cl)cc4)cc23)n1 [1C12, 4-(5-(4-chlorophenyl)-1H-pyrrolo[2,3-b]pyridin-3-yl)pyrimidin-2-amine] | > 70 | > 70 | > 70 | > 70 | > 70 | > 70 | > 70
20 | > 70 | > 70 | > 70 | > 70 |  |  | CSc1ccc(-c2cnc3[nH]cc(-c4ccnc(NC5CC5)n4)c3c2)cc1 [1A8, N-cyclopropyl-4-(5-(4-(methylthio)phenyl)-1H-pyrrolo[2,3-b]pyridin-3-yl)pyrimidin-2-amine] |  |  |  |  |  |  | 
21 | > 70 | > 70 | > 70 | > 70 |  |  | FC(F)(F)Oc1ccc(-c2cnc3[nH]cc(-c4ccnc(NC5CC5)n4)c3c2)cc1 [1A3, N-cyclopropyl-4-(5-(4-(trifluoromethoxy)phenyl)-1H-pyrrolo[2,3-b]pyridin-3-yl)pyrimidin-2-amine] |  |  |  |  |  |  | 
